Experimental data as given in ChEMBL document CHEMBL1140490, “Design and synthesis via click chemistry of 8,9-anhydroerythromycin A 6,9-hemiketal analogues with anti-MRSA and -VRE activity” (2007).
Converted amounts (≈) assume the structure as drawn.

What was measured:
Staphylococcus aureus [1] = assay: Antimicrobial activity against Staphylococcus aureus ISP217 by serial dilution method; type: functional
Staphylococcus aureus [2] = assay: (§1) Antimicrobial activity against Staphylococcus aureus 8325 by serial dilution method; type: functional
Staphylococcus aureus [3] = assay: as §1; type: functional; remark: listed apart in the source
Staphylococcus aureus [4] = assay: Antimicrobial activity against Staphylococcus aureus FDA209P by serial dilution method; type: functional
Escherichia coli = assay: Antimicrobial activity against Escherichia coli NIHJ JC-2 by serial dilution method; type: functional
Enterococcus faecalis = assay: Antimicrobial activity against vancomycin-resistant Enterococcus faecalis NCTC-12201 by serial dilution method; type: functional
Staphylococcus aureus [5] = assay: Antimicrobial activity against Staphylococcus aureus Smith by serial dilution method; type: functional
Enterococcus faecium = assay: Antimicrobial activity against vancomycin-resistant Enterococcus faecium NCTC-12203 by serial dilution method
Staphylococcus aureus [6] = assay: Antimicrobial activity against Staphylococcus aureus ISP447 by serial dilution method; type: functional
Staphylococcus aureus [7] = assay: Antimicrobial activity against methicillin-resistant Staphylococcus aureus N315 IR94-HR-1 by serial dilution method; type: functional
Staphylococcus aureus [8] = assay: Antimicrobial activity against methicillin-resistant Staphylococcus aureus 70 by serial dilution method; type: functional
Staphylococcus aureus [9] = assay: Antimicrobial activity against methicillin-resistant Staphylococcus aureus N315 IR94 by serial dilution method; type: functional
Staphylococcus aureus [10] = assay: Antimicrobial activity against methicillin-resistant Staphylococcus aureus 92-1191 by serial dilution method; type: functional

Row | Compound | MIC (Staphylococcus aureus [1]) [µg/mL] | MIC (Staphylococcus aureus [2]) [µg/mL] | MIC (Staphylococcus aureus [3]) [µg/mL] | MIC (Staphylococcus aureus [4]) [µg/mL] | MIC (Escherichia coli) [µg/mL] | MIC (Enterococcus faecalis) [µg/mL] | MIC (Staphylococcus aureus [5]) [µg/mL] | MIC (Enterococcus faecium) [µg/mL] | MIC (Staphylococcus aureus [6]) [µg/mL] | MIC (Staphylococcus aureus [7]) [µg/mL] | MIC (Staphylococcus aureus [8]) [µg/mL] | MIC (Staphylococcus aureus [9]) [µg/mL] | MIC (Staphylococcus aureus [10]) [µg/mL]
1 | CC[C@H]1OC(=O)[C@H](C)[C@@H](OCc2cn(CC(=O)O)nn2)[C@H](C)[C@@H](O[C@@H]2O[C@H](C)C[C@H](N(C)C)[C@H]2O)[C@@]2(C)CC(C)=C(O2)[C@H](C)[C@@H](OC(=O)C(C)C)[C@]1(C)OC(=O)C(C)C | > 128 | > 128 | > 128 | > 128 | > 128 | > 128 | > 128 | > 128 | > 128 | – | – | – | –
2 | CC[C@H]1OC(=O)[C@H](C)[C@@H](OCc2cn(CSc3ccccc3)nn2)[C@H](C)[C@@H](O[C@@H]2O[C@H](C)C[C@H](N(C)C)[C@H]2O)[C@@]2(C)CC(C)=C(O2)[C@H](C)[C@@H](OC(=O)C(C)C)[C@]1(C)OC(=O)C(C)C | 16 (≈ 17.8 µM) | 16 (≈ 17.8 µM) | 16 (≈ 17.8 µM) | 16 (≈ 17.8 µM) | > 128 | 16 (≈ 17.8 µM) | 32 (≈ 35.5 µM) | 16 (≈ 17.8 µM) | 16 (≈ 17.8 µM) | 8 (≈ 8.88 µM) | 16 (≈ 17.8 µM) | 8 (≈ 8.88 µM) | 16 (≈ 17.8 µM)
3 | CC[C@H]1OC(=O)[C@H](C)[C@@H](O)[C@H](C)[C@@H](O[C@@H]2O[C@H](C)C[C@H](N(C)C)[C@H]2OC(C)=O)[C@@]2(C)CC(C)=C(O2)[C@H](C)[C@@H](OC(=O)C(C)C)[C@]1(C)OC(=O)C(C)C | 64 (≈ 86.5 µM) | 64 (≈ 86.5 µM) | 128 (≈ 173 µM) | 64 (≈ 86.5 µM) | > 128 | 64 (≈ 86.5 µM) | > 128 | 64 (≈ 86.5 µM) | 128 (≈ 173 µM) | 64 (≈ 86.5 µM) | 64 (≈ 86.5 µM) | 64 (≈ 86.5 µM) | 64 (≈ 86.5 µM)
4 | CC[C@H]1OC(=O)[C@H](C)[C@@H](O[C@H]2C[C@@](C)(OC)[C@@H](O)[C@H](C)O2)[C@H](C)[C@@H](O[C@@H]2O[C@H](C)C[C@H](N(C)C)[C@H]2O)[C@@]2(C)CC(C)=C(O2)[C@H](C)[C@@H](OC(=O)C(C)C)[C@]1(C)OC(=O)C(C)C | 16 (≈ 18.7 µM) | 16 (≈ 18.7 µM) | 32 (≈ 37.4 µM) | 16 (≈ 18.7 µM) | > 128 | 64 (≈ 74.8 µM) | 16 (≈ 18.7 µM) | 32 (≈ 37.4 µM) | 32 (≈ 37.4 µM) | 16 (≈ 18.7 µM) | 32 (≈ 37.4 µM) | 16 (≈ 18.7 µM) | 32 (≈ 37.4 µM)
5 | CC[C@H]1OC(=O)[C@H](C)[C@@H](OCc2cn(-c3cccnc3)nn2)[C@H](C)[C@@H](O[C@@H]2O[C@H](C)C[C@H](N(C)C)[C@H]2O)[C@@]2(C)CC(C)=C(O2)[C@H](C)[C@@H](OC(=O)C(C)C)[C@]1(C)OC(=O)C(C)C | 16 (≈ 18.7 µM) | 16 (≈ 18.7 µM) | 128 (≈ 150 µM) | 32 (≈ 37.4 µM) | > 128 | 32 (≈ 37.4 µM) | 64 (≈ 74.8 µM) | 16 (≈ 18.7 µM) | 64 (≈ 74.8 µM) | 16 (≈ 18.7 µM) | 16 (≈ 18.7 µM) | 16 (≈ 18.7 µM) | 32 (≈ 37.4 µM)
6 | C#CCO[C@H]1[C@H](C)[C@@H](O[C@@H]2O[C@H](C)C[C@H](N(C)C)[C@H]2O)[C@@]2(C)CC(C)=C(O2)[C@H](C)[C@@H](OC(=O)C(C)C)[C@](C)(OC(=O)C(C)C)[C@@H](CC)OC(=O)[C@@H]1C | 16 (≈ 21.7 µM) | 16 (≈ 21.7 µM) | 32 (≈ 43.5 µM) | 32 (≈ 43.5 µM) | > 128 | 16 (≈ 21.7 µM) | 32 (≈ 43.5 µM) | 16 (≈ 21.7 µM) | 32 (≈ 43.5 µM) | 16 (≈ 21.7 µM) | 16 (≈ 21.7 µM) | 16 (≈ 21.7 µM) | 16 (≈ 21.7 µM)
7 | CC[C@H]1OC(=O)[C@H](C)[C@@H](OCc2cn(-c3cnc4ccccc4c3)nn2)[C@H](C)[C@@H](O[C@@H]2O[C@H](C)C[C@H](N(C)C)[C@H]2O)[C@@]2(C)CC(C)=C(O2)[C@H](C)[C@@H](OC(=O)C(C)C)[C@]1(C)OC(=O)C(C)C | 16 (≈ 17.7 µM) | 8 (≈ 8.83 µM) | 32 (≈ 35.3 µM) | 16 (≈ 17.7 µM) | > 128 | 32 (≈ 35.3 µM) | 32 (≈ 35.3 µM) | 16 (≈ 17.7 µM) | 32 (≈ 35.3 µM) | 16 (≈ 17.7 µM) | 16 (≈ 17.7 µM) | 8 (≈ 8.83 µM) | 16 (≈ 17.7 µM)
8 | CC[C@H]1OC(=O)[C@H](C)[C@@H](O[C@H]2C[C@@](C)(OC)[C@@H](O)[C@H](C)O2)[C@H](C)[C@@H](O[C@@H]2O[C@H](C)C[C@H](N(C)C)[C@H]2O)[C@](C)(O)C[C@@H](C)C(=O)[C@H](C)[C@@H](O)[C@]1(C)O [ERYTHROMYCIN] | > 256 | > 256 | 64 (≈ 87.2 µM) | ≤ 0.5 | > 256 | > 256 | ≤ 0.5 | > 256 | > 256 | – | – | – | > 128
9 | CC[C@H]1OC(=O)[C@H](C)[C@@H](OCc2cn(-c3cccc4ccccc34)nn2)[C@H](C)[C@@H](O[C@@H]2O[C@H](C)C[C@H](N(C)C)[C@H]2O)[C@@]2(C)CC(C)=C(O2)[C@H](C)[C@@H](OC(=O)C(C)C)[C@]1(C)OC(=O)C(C)C | 16 (≈ 17.7 µM) | 16 (≈ 17.7 µM) | 64 (≈ 70.7 µM) | 32 (≈ 35.4 µM) | > 128 | 32 (≈ 35.4 µM) | 64 (≈ 70.7 µM) | 16 (≈ 17.7 µM) | 32 (≈ 35.4 µM) | 16 (≈ 17.7 µM) | 16 (≈ 17.7 µM) | 16 (≈ 17.7 µM) | 32 (≈ 35.4 µM)
10 | CC[C@H]1OC(=O)[C@H](C)[C@@H](O[C@H]2C[C@@](C)(OC)[C@@H](OC=O)[C@H](C)O2)[C@H](C)[C@@H](O[C@@H]2O[C@H](C)C[C@H](N(C)C)[C@H]2OC(C)=O)[C@@]2(C)CC(C)=C(O2)[C@H](C)[C@@H](OC(=O)C(C)C)[C@]1(C)OC(=O)C(C)C | 16 (≈ 17.3 µM) | 16 (≈ 17.3 µM) | 32 (≈ 34.6 µM) | 16 (≈ 17.3 µM) | > 128 | 32 (≈ 34.6 µM) | 16 (≈ 17.3 µM) | 32 (≈ 34.6 µM) | 16 (≈ 17.3 µM) | 16 (≈ 17.3 µM) | 16 (≈ 17.3 µM) | 16 (≈ 17.3 µM) | –
11 | CC[C@H]1OC(=O)[C@H](C)[C@@H](OCc2cn(CC(=O)OCc3ccccc3)nn2)[C@H](C)[C@@H](O[C@@H]2O[C@H](C)C[C@H](N(C)C)[C@H]2O)[C@@]2(C)CC(C)=C(O2)[C@H](C)[C@@H](OC(=O)C(C)C)[C@]1(C)OC(=O)C(C)C | 16 (≈ 17.3 µM) | 16 (≈ 17.3 µM) | 64 (≈ 69 µM) | 32 (≈ 34.5 µM) | > 128 | 32 (≈ 34.5 µM) | 128 (≈ 138 µM) | 32 (≈ 34.5 µM) | 64 (≈ 69 µM) | 16 (≈ 17.3 µM) | 16 (≈ 17.3 µM) | 16 (≈ 17.3 µM) | 32 (≈ 34.5 µM)
12 | CC[C@H]1OC(=O)[C@H](C)[C@@H](OCc2cn(CCO)nn2)[C@H](C)[C@@H](O[C@@H]2O[C@H](C)C[C@H](N(C)C)[C@H]2O)[C@@]2(C)CC(C)=C(O2)[C@H](C)[C@@H](OC(=O)C(C)C)[C@]1(C)OC(=O)C(C)C | 128 (≈ 156 µM) | 64 (≈ 77.8 µM) | 128 (≈ 156 µM) | 64 (≈ 77.8 µM) | > 128 | 128 (≈ 156 µM) | > 128 | 64 (≈ 77.8 µM) | > 128 | 64 (≈ 77.8 µM) | 64 (≈ 77.8 µM) | 64 (≈ 77.8 µM) | 128 (≈ 156 µM)
13 | CC[C@H]1OC(=O)[C@H](C)[C@@H](OCc2cn(Cc3ccccc3)nn2)[C@H](C)[C@@H](O[C@@H]2O[C@H](C)C[C@H](N(C)C)[C@H]2O)[C@@]2(C)CC(C)=C(O2)[C@H](C)[C@@H](OC(=O)C(C)C)[C@]1(C)OC(=O)C(C)C | 16 (≈ 18.4 µM) | 8 (≈ 9.2 µM) | 16 (≈ 18.4 µM) | 16 (≈ 18.4 µM) | > 128 | 16 (≈ 18.4 µM) | 32 (≈ 36.8 µM) | 16 (≈ 18.4 µM) | 16 (≈ 18.4 µM) | 8 (≈ 9.2 µM) | 16 (≈ 18.4 µM) | 8 (≈ 9.2 µM) | 16 (≈ 18.4 µM)
14 | CC[C@H]1OC(=O)[C@H](C)[C@@H](OCc2cn(CC(=O)Nc3ccccn3)nn2)[C@H](C)[C@@H](O[C@@H]2O[C@H](C)C[C@H](N(C)C)[C@H]2O)[C@@]2(C)CC(C)=C(O2)[C@H](C)[C@@H](OC(=O)C(C)C)[C@]1(C)OC(=O)C(C)C | 16 (≈ 17.5 µM) | 16 (≈ 17.5 µM) | 32 (≈ 35 µM) | 32 (≈ 35 µM) | > 128 | > 128 | 32 (≈ 35 µM) | 32 (≈ 35 µM) | 32 (≈ 35 µM) | 16 (≈ 17.5 µM) | 32 (≈ 35 µM) | 16 (≈ 17.5 µM) | 32 (≈ 35 µM)
15 | CC[C@H]1OC(=O)[C@H](C)[C@@H](OCc2cn(C34CC5CC(CC(C5)C3)C4)nn2)[C@H](C)[C@@H](O[C@@H]2O[C@H](C)C[C@H](N(C)C)[C@H]2O)[C@@]2(C)CC(C)=C(O2)[C@H](C)[C@@H](OC(=O)C(C)C)[C@]1(C)OC(=O)C(C)C | 8 (≈ 8.76 µM) | 8 (≈ 8.76 µM) | 16 (≈ 17.5 µM) | 8 (≈ 8.76 µM) | > 128 | 8 (≈ 8.76 µM) | 16 (≈ 17.5 µM) | 8 (≈ 8.76 µM) | 16 (≈ 17.5 µM) | 8 (≈ 8.76 µM) | 8 (≈ 8.76 µM) | 8 (≈ 8.76 µM) | 8 (≈ 8.76 µM)
